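Tested at 5 concentrations; 48 h exposure; 96-well plates; endpoints linearly interpolated, else capped at highest concentration. TGI denotes the concentration required for complete inhibition of growth.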
Assays:
Experiment in all cases: NCI anticancer screen, dose series, 48 h
EKVX NSCLC = system: EKVX NSCLC
HCT-116 colon = system: HCT-116 colon
HOP-92 NSCLC = system: HOP-92 NSCLC
LOX IMVI melanoma = system: LOX IMVI melanoma
RPMI-8226 leukemia = system: RPMI-8226 leukemia
RXF 393 renal = system: RXF 393 renal
SF-295 CNS = system: SF-295 CNS
SN12C renal = system: SN12C renal
UACC-62 melanoma = system: UACC-62 melanoma
UO-31 renal = system: UO-31 renal
OVCAR-4 ovarian = system: OVCAR-4 ovarian

SMILES	TGI (EKVX NSCLC) [µM]	TGI (HCT-116 colon) [µM]	TGI (HOP-92 NSCLC) [µM]	TGI (LOX IMVI melanoma) [µM]	TGI (RPMI-8226 leukemia) [µM]	TGI (RXF 393 renal) [µM]	TGI (SF-295 CNS) [µM]	TGI (SN12C renal) [µM]	TGI (UACC-62 melanoma) [µM]	TGI (UO-31 renal) [µM]	TGI (OVCAR-4 ovarian) [µM]
CCOC(=O)c1nc2ccc(C(F)(F)F)cc2nc1NCc1cc(OC)c(OC)c(OC)c1	> 100	> 100	> 100	> 100	48	> 100	> 100	> 100	> 100	99.5	
CC(=O)OC(/C=C/c1ccccc1)=C(OC(C)C)/C1=C(\c2ccccc2)SCCCSC1=O	> 100	> 100	> 100	> 100	> 100	> 100	> 100		> 100	> 100	> 100
C=CCCN1CCc2c([nH]c3ccccc23)C1C(=O)O (centres undefined)	> 100	> 100	> 100	> 100		> 100	> 100	> 100	> 100	> 100	> 100
CC(C)(C)OC(=O)NC(Cc1ccc(OCc2ccccc2)cn1)C(=O)N1CCCCC1 (centres undefined)	> 100	> 100	> 100	71	52.7	65.3	> 100	> 100	> 100	71.4	
CCOC(=O)N/N=C(/N)c1cccc([N+](=O)[O-])c1	> 100	> 100	> 100	> 100		> 100	> 100	> 100	> 100	> 100	> 100
Cc1ccc(/C=C2\CCCc3ccccc3C2=O)cc1	60.9	29.1	72.4	30	75		16.6	39.6	29.2	> 100	> 100
O=P(Nc1ccc(Cl)cc1)(Oc1ccccc1)N(CCCl)CCCl (centres undefined)	> 100	> 100	> 100				> 100	> 100	> 100	> 100	> 100
NC(N)=NCCC[C@H](N)C(=O)NCC(=O)N[C@@H](CC(=O)O)c1ncc(NC(=O)C(F)(F)F)o1	> 25	> 25		> 25		> 25	> 25		> 25	> 25	> 25
O=C1C=CC[C@H]2O[C@@H](COC(=O)Cc3ccccc3)C[C@H]2O1	70.1		> 100		> 100		> 100	> 100	> 100	> 100	85.9
CCOC(=O)CNc1c(OCc2ccccc2)c(=O)c1=O	> 100	> 100			> 100	> 100	> 100	> 100	> 100	> 100	> 100
Oc1ccc(-c2nc(-c3cccnc3)c(-c3ccc(Cl)cc3)[nH]2)cc1	27.4	31.6		24	30	26.5	27.3	32.6	25.9	22.9	23.3
N=C(N)c1ccc(C(NC(=O)CNS(=O)(=O)c2ccc3ccccc3c2)P(=O)(Oc2ccccc2)Oc2ccccc2)cc1 (centres undefined)		> 100	> 100	> 100	> 100	> 100		> 100	> 100	> 100	> 100
O=C1CSC(c2cccc(Oc3ccccc3)c2)N1c1ccc(Cl)cc1 (centres undefined)	78.7	37.9	65.7	50.9		73.3	> 100	> 100	34.2	> 100	> 100
O=Cc1c(C(=O)O)[nH]c(=O)[nH]c1=O	> 100	> 100		> 100	> 100	> 100	> 100	> 100	> 100	> 100	
O=C(O)c1ccc([N+](=O)[O-])c2cc3cnccc3nc12		33	45.8		> 100	74.1	> 100	32.8	24.8	43.7	
O=C(NNC(=S)Nc1cccc(Cl)c1)c1cc(-c2ccccc2)nc2ccccc12		30.3	30.2		75.3	32.7	24.5	37.1	26.7	29.8	28.7
OCC(O)COCn1nncc1Cn1ncc2c(SCc3ccccc3)ncnc21 (centres undefined)	> 100	> 100		> 100			> 100	> 100	> 100	> 100	> 100
Cc1cccc(N=NC(=O)NNc2cccc(C)c2C)c1C		72.2		60.2	74.8			> 100	> 100	> 100	> 100
CC(C)[Si](OC1=C(C(=O)N(C)c2cccc(Cl)c2)CCCC1)(C(C)C)C(C)C	30.1		25.4	32.6	42.4	18.9	23.3		30.8	27.9	26
CC12C(=O)CC(CC1=O)C2(C)C	> 100	> 100	> 100	> 100	> 100		> 100	> 100	> 100	> 100	> 100
N#CC(NC12CC3CC(CC(C3)C1)C2)c1ccccc1C(F)(F)F (centres undefined)	> 100	> 100		> 100	> 100	> 100		> 100		> 100	> 100
NC(N)=N/N=C/c1c[nH]c2ccccc12	> 100			> 100	> 100	> 100	> 100	> 100	> 100	> 100	> 100

From PubChem BioAssay (NCI)
